Tested on: participants with SSc-RP
Assay: Scleroderma Health Assessment Questionnaire (SHAQ): disability indices and visual analog scales
Assay type: in vivo, human
Conditions: PP Population, Part A, SSc patients, sensitivity analysis
Excerpt: The standard, validated, patient reported outcome measures tool for SSc patients, the Scleroderma Health Assessment Questionnaire (SHAQ), will be used to assess the participant qualify of life. Details are attached in the Appendix. The participant quality of life will be scored, and a disability index calculated for each questionnaire completed by the patient at Screening and each in-clinic visit. The absolute change in participant quality of life from baseline to the end of each dosing period will be calculated similar to frequency data as before.
The SHAQ includes a Raynaud's VAS, which will be reported at screening and each in-clinic visit. The absolute change in Raynaud-VAS, assessed by the participants response to the SHAQ question ‘In the past 7 days, how much have your Raynaud's interfered with your daily activities?’ at baseline and the end of each dosing period will be calculated similar to frequency data as before.
The SHAQ is used to calculate a Disability Index to assess the participant qualify of life. The eight categories assessed by the Disability Index are 1) dressing and grooming, 2) arising, 3) eating, 4) walking, 5) hygiene, 6) reach, 7) grip, and 8) common daily activities. For each of these categories, patients report the amount of difficulty they have in performing two or three specific activities.
There are four possible responses for the Disability Index questions: • Without any difficulty=0 • With some difficulty=1 • With much difficulty=2 • Unable to do=3. • The highest score reported by the patient for any component question of the eight categories determines the score for that category. • If a component question is left blank or the response is too ambiguous to assign a score, then the score for that category is determined by the remaining completed question(s). • If all component questions are blank or if more than one answer is given, then follow up with the respondent is required. • If the respondent's mark is between the response columns, then move it to the closest one. If it's directly between the two, move it to the higher one.
Each of the disability items on the SHAQ has a companion aids/devices variable that is used to record what type(s) of assistance, if any, the participant uses for his/her usual activities. These variables (see below) are coded as follows: • 0=No assistance is needed. • 1=A special device is used by the patient in his/her usual activities. • 2=The patient usually needs help from another person. • 3=The patient usually needs BOTH a special device AND help from another person.
The scoring variables and scoring rules permit the computation of two disability indices, the Standard Disability Index and the Alternative Disability Index.
This question results in a new set of category scores that are computed by adjusting the score for each category, if necessary, based on the patient's use of an aid or device or assistance for that category. If either devices and/or help from another person are checked for a category, the score is set to “2”, unless the score is already “3” (i.e., scores of “0” or “1” are increased to “2”). For example, if the highest score for the dressing category is “1”, and the patient says they use a device for dressing, the computed category score would be “2”. The sum of the computed categories scores is then calculated and divided by the number of categories answered. This gives a score in the 0 to 3 range.
The aid and device variables are not used to calculate the alternative disability index; it is calculated by adding the scores for each of the categories and dividing by the number of categories answered. This gives a score in the 0 to 3 range.
The standard, validated, patient reported outcome measures tool for SSc patients, the SHAQ, was collected at the time points specified in the study schedules (FIG. 2 and FIGS. 4A and 4B) to assess the participant's quality of life. The SHAQ included a Raynaud's VAS that will also be reported separately.

[1] = Day 12 vs baseline, Subject 01-110 Day 12 score excluded
[2] = In-Clinic Visit (Day 12), Subject 01-110 Day 12 score excluded

Question: What does the source list for COCCOC(=O)C1=C(C)NC(C)=C(C(=O)OC/C=C/c2ccccc2)C1c1cccc([N+](=O)[O-])c1 (stereo not drawn) [Pooled Cilnidipine]?
Answer: SHAQ Visual Analogue Scale - Raynaud’s, Change from Baseline, Min (Day 12 vs baseline): −2.40; SHAQ Visual Analogue Scale - Raynaud’s, Change from Baseline, Q1 (Day 12 vs baseline): −1.050; SHAQ Visual Analogue Scale - Raynaud’s, Change from Baseline, Q3 (Day 12 vs baseline): 0.350; SHAQ Visual Analogue Scale - Raynaud’s, Percent Change from Baseline, Max (Day 12 vs baseline): 136.4%; SHAQ Visual Analogue Scale - Raynaud’s, Percent Change from Baseline, Mean (Day 12 vs baseline): −18.62%; SHAQ Visual Analogue Scale - Raynaud’s, Percent Change from Baseline, Median (Day 12 vs baseline): −33.33%; SHAQ Visual Analogue Scale - Raynaud’s, Percent Change from Baseline, Min (Day 12 vs baseline): −100.0%; SHAQ Visual Analogue Scale - Raynaud’s, Percent Change from Baseline, Q1 (Day 12 vs baseline): −68.57%; SHAQ Visual Analogue Scale - Raynaud’s, Percent Change from Baseline, Q3 (Day 12 vs baseline): −2.27%; SHAQ Visual Analogue Scale - Breathing Problems, Change from Baseline, Max [1]: 0.60; SHAQ Visual Analogue Scale - Breathing Problems, Change from Baseline, Mean [1]: −0.388; SHAQ Visual Analogue Scale - Breathing Problems, Change from Baseline, Median [1]: 0.000; SHAQ Visual Analogue Scale - Breathing Problems, Change from Baseline, Min [1]: −2.00; SHAQ Visual Analogue Scale - Breathing Problems, Change from Baseline, Q1 [1]: −1.000; SHAQ Visual Analogue Scale - Breathing Problems, Change from Baseline, Q3 [1]: 0.150; SHAQ Visual Analogue Scale - Breathing Problems, Percent Change from Baseline, Max [1]: 150.0%; SHAQ Visual Analogue Scale - Breathing Problems, Percent Change from Baseline, Mean [1]: −0.22%; SHAQ Visual Analogue Scale - Breathing Problems, Percent Change from Baseline, Median [1]: −16.00%; SHAQ Visual Analogue Scale - Breathing Problems, Percent Change from Baseline, Min [1]: −100.0%; SHAQ Visual Analogue Scale - Breathing Problems, Percent Change from Baseline, Q1 [1]: −66.67%; SHAQ Visual Analogue Scale - Breathing Problems, Percent Change from Baseline, Q3 [1]: 31.58%; SHAQ Alternative Disability Index, Max (In-Clinic Visit (Day 12)): 1.25; SHAQ Alternative Disability Index, Mean (In-Clinic Visit (Day 12)): 0.391; SHAQ Alternative Disability Index, Median (In-Clinic Visit (Day 12)): 0.188; SHAQ Alternative Disability Index, Min (In-Clinic Visit (Day 12)): 0.00; SHAQ Alternative Disability Index, Q1 (In-Clinic Visit (Day 12)): 0.000; SHAQ Alternative Disability Index, Q3 (In-Clinic Visit (Day 12)): 0.750; SHAQ Visual Analogue Scale - Finger Ulcers, Max (In-Clinic Visit (Day 12)): 1.90; SHAQ Visual Analogue Scale - Finger Ulcers, Mean (In-Clinic Visit (Day 12)): 0.463; SHAQ Visual Analogue Scale - Finger Ulcers, Median (In-Clinic Visit (Day 12)): 0.000; SHAQ Visual Analogue Scale - Finger Ulcers, Min (In-Clinic Visit (Day 12)): 0.00; SHAQ Visual Analogue Scale - Finger Ulcers, Q1 (In-Clinic Visit (Day 12)): 0.000; SHAQ Visual Analogue Scale - Finger Ulcers, Q3 (In-Clinic Visit (Day 12)): 0.900; SHAQ Visual Analogue Scale - Intestinal Problems, Max (In-Clinic Visit (Day 12)): 3.80; SHAQ Visual Analogue Scale - Intestinal Problems, Mean (In-Clinic Visit (Day 12)): 0.975; SHAQ Visual Analogue Scale - Intestinal Problems, Median (In-Clinic Visit (Day 12)): 0.300; SHAQ Visual Analogue Scale - Intestinal Problems, Min (In-Clinic Visit (Day 12)): 0.00; SHAQ Visual Analogue Scale - Intestinal Problems, Q1 (In-Clinic Visit (Day 12)): 0.000; SHAQ Visual Analogue Scale - Intestinal Problems, Q3 (In-Clinic Visit (Day 12)): 1.700; SHAQ Visual Analogue Scale - Overall Disease Severity, Max (In-Clinic Visit (Day 12)): 5.20; SHAQ Visual Analogue Scale - Overall Disease Severity, Mean (In-Clinic Visit (Day 12)): 1.475; SHAQ Visual Analogue Scale - Overall Disease Severity, Median (In-Clinic Visit (Day 12)): 1.300; SHAQ Visual Analogue Scale - Overall Disease Severity, Min (In-Clinic Visit (Day 12)): 0.00; SHAQ Visual Analogue Scale - Overall Disease Severity, Q1 (In-Clinic Visit (Day 12)): 0.350; SHAQ Visual Analogue Scale - Overall Disease Severity, Q3 (In-Clinic Visit (Day 12)): 1.650; SHAQ Visual Analogue Scale - Pain, Max (In-Clinic Visit (Day 12)): 4.30; SHAQ Visual Analogue Scale - Pain, Mean (In-Clinic Visit (Day 12)): 1.875; SHAQ Visual Analogue Scale - Pain, Median (In-Clinic Visit (Day 12)): 1.550; SHAQ Visual Analogue Scale - Pain, Min (In-Clinic Visit (Day 12)): 0.00; SHAQ Visual Analogue Scale - Pain, Q1 (In-Clinic Visit (Day 12)): 0.550; SHAQ Visual Analogue Scale - Pain, Q3 (In-Clinic Visit (Day 12)): 3.250; SHAQ Visual Analogue Scale - Raynaud’s, Max (In-Clinic Visit (Day 12)): 4.40; SHAQ Visual Analogue Scale - Raynaud’s, Mean (In-Clinic Visit (Day 12)): 1.900; SHAQ Visual Analogue Scale - Raynaud’s, Median (In-Clinic Visit (Day 12)): 1.250; SHAQ Visual Analogue Scale - Raynaud’s, Min (In-Clinic Visit (Day 12)): 0.00; SHAQ Visual Analogue Scale - Raynaud’s, Q1 (In-Clinic Visit (Day 12)): 0.700; SHAQ Visual Analogue Scale - Raynaud’s, Q3 (In-Clinic Visit (Day 12)): 3.450; SHAQ Visual Analogue Scale - Breathing Problems, Max [2]: 6.30; SHAQ Visual Analogue Scale - Breathing Problems, Mean [2]: 1.213; SHAQ Visual Analogue Scale - Breathing Problems, Median [2]: 0.200; SHAQ Visual Analogue Scale - Breathing Problems, Min [2]: 0.00; SHAQ Visual Analogue Scale - Breathing Problems, Q1 [2]: 0.000; SHAQ Visual Analogue Scale - Breathing Problems, Q3 [2]: 1.500
